From patent US20260077051A1, “COMPOUNDS FOR THE DEGRADATION OF EGFR KINASE” (BeOne Medicines I GmbH, priority 2023, published 2026)

Experiments:
[1] = target: T1, EGFR-L858R/C797S (H1975-clone #8 cells) (Homo sapiens, UniProt P00533, C797S/L858R); assay: EGFR degradation in H1975-clone#8 (L858R/C797S) cells (HTRF assay); format: cell-based; conditions: 16 h treatment; for DC50: IC50(DC50) of EGFR degradation; for Dmax: maximum percentage of inhibition (degradation)
T1 construct: expressed in transfected cells; host or cells: H1975 (lentiviral transduction, endogenous EGFR knocked out, single clone #8)
How it was run: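 H1975 cells engineered to carry only homozygous exogenous EGFR L858R/C797S (clone #8) treated 16 h at 37 °C with compound, 8 doses from 10 uM in 5-fold steps, 0.1% DMSO. Remaining EGFR in lysates measured by HTRF; degradation percentage relative to DMSO control, DC50 and Dmax from 4-parameter fit.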

[2] = target: T2, EGFR L858R (BaF3-L858R cells) (Homo sapiens, UniProt P00533, L858R); assay: EGFR degradation in BaF3-L858R cells (HTRF assay); format: cell-based; conditions: 16 h treatment; for DC50: IC50(DC50) of EGFR degradation; for Dmax: maximum percentage of inhibition (degradation)
T2 construct: host or cells: BaF3
How it was run: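 BaF3-L858R cells were exposed for 16 h at 37° C to 8 doses, 5-fold dilutions starting at 10 uM final, in 0.1% DMSO medium. Lysates were incubated overnight with HTRF antibodies and read at 665/620 nm. Degradation was taken relative to DMSO control, and DC50 and Dmax came from a four-parameter fit.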

T1 sequence (P00533 25-1210 C797S/L858R): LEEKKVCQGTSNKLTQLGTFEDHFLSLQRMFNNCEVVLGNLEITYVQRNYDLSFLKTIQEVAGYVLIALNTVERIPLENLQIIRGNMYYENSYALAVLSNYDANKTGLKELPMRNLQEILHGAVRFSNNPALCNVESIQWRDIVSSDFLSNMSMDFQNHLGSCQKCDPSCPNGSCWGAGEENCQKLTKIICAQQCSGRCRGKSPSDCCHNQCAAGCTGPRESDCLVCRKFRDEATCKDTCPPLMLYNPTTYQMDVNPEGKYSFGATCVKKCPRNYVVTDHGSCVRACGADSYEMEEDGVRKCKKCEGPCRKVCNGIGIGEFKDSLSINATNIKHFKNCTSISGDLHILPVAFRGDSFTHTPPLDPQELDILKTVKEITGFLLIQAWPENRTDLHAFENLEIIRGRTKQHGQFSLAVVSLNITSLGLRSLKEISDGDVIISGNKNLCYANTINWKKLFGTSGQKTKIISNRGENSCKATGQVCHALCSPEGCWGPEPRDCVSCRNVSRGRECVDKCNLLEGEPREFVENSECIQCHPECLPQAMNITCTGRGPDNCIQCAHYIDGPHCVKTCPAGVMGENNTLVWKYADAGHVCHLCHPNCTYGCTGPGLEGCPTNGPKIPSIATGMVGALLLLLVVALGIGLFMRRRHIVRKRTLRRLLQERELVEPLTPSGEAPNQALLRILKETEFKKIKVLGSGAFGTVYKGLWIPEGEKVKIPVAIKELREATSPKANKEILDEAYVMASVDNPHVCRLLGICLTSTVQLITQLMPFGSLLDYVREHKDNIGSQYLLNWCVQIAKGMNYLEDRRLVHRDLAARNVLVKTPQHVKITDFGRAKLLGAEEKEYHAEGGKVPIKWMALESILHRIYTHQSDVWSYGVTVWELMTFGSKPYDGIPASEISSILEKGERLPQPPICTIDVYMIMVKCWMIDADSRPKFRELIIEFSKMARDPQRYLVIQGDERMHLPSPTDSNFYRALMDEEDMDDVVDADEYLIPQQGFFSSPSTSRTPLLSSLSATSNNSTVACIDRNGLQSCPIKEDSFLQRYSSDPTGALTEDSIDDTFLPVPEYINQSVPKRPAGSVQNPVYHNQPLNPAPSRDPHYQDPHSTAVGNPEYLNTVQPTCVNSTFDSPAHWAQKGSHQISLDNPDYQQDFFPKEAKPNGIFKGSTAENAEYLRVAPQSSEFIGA
T2 sequence (P00533 25-1210 L858R): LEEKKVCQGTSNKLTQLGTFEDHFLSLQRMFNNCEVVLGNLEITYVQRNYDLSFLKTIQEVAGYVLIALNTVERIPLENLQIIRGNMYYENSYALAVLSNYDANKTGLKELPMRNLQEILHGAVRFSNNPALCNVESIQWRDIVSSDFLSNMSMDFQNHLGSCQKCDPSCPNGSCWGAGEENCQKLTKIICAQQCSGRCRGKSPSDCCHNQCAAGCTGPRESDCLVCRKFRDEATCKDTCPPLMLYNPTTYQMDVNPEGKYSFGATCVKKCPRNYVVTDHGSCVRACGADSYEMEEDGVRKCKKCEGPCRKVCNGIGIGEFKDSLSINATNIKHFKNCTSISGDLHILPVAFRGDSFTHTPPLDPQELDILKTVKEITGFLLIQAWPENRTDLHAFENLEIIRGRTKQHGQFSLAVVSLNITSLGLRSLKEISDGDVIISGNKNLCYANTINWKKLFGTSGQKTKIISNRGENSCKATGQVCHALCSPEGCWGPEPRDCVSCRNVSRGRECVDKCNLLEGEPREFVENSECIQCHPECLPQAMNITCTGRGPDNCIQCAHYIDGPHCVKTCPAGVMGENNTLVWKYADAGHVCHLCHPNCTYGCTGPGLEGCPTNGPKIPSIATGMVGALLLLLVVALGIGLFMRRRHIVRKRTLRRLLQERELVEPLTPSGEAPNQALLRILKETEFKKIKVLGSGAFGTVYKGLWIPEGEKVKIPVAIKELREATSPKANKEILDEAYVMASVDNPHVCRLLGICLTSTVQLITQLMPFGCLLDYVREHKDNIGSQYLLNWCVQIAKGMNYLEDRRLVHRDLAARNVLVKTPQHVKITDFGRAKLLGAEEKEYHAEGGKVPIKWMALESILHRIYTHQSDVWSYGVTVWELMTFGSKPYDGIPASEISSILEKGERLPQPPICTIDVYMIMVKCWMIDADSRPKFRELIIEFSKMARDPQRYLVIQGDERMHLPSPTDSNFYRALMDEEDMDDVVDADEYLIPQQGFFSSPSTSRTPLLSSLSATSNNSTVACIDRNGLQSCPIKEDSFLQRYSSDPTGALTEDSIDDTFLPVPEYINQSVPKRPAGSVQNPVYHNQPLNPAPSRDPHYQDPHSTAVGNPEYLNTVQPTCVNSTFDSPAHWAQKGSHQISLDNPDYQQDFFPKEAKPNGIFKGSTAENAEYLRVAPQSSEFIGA

| DC50 [1] [nM] | Dmax [1] [%] | DC50 [2] [nM] | Dmax [2] [%] | SMILES |
| --- | --- | --- | --- | --- |
| 19.3 | 40.2 | 1.65 | 82.8 | Cc1cc2cc(n1)-c1cnn(C)c1OCC[C@H]1C[C@@H]1CN1/C(=N/C2=O)Nc2ccc(N3CCN(CCc4c(C)cc(C5CCC(=O)NC5=O)nc4C)CC3)cc21 (stereo partly shown) [Example 21, 3-(5-(2-(4-((7^1S,7^2R,E)-1^1,2^6-dimethyl-3-oxo-5^2,5^3-dihydro-1^1H,5^1H-10-oxa-4-aza-5 (2,1)-benzo[d]imidazola-2 (2,4)-pyridina-1 (4,5)-pyrazola-7 (1,2)-cyclopropanacyclodecaphane-5^6-yl)piperazin-1-yl)ethyl)-4,6-dimethylpyridin-2-yl)piperidine-2,6-dione] |
| 4.74 | 44.3 | 8.38 | 89.1 | Cc1cc2cc(n1)-c1cnn(C)c1OCC[C@H]1C[C@@H]1CN1/C(=N/C2=O)Nc2ccc(N3CCN([C@@H]4CCN(c5c(C)cc(C6CCC(=O)NC6=O)nc5C)C[C@@H]4F)CC3)cc21 (stereo partly drawn) [Example 33, 3-(5-((3S,4R)-4-(4-((7^1S,7^2R,E)-1^1,2^6-dimethyl-3-oxo-5^2,5^3-dihydro-1^1H,5^1H-10-oxa-4-aza-5 (2,1)-benzo[d]imidazola-2 (2,4)-pyridina-1 (4,5)-pyrazola-7 (1,2)-cyclopropanacyclodecaphane-5^6-yl)piperazin-1-yl)-3-fluoropiperidin-1-yl)-4,6-dimethylpyridin-2-yl)piperidine-2,6-dione] |
| 10.5 | 60.9 | 6.44 | 84.5 | CCc1nc(C2CCC(=O)NC2=O)ccc1N1CC[C@@H](N2CCN(c3ccc4c(c3)N3C[C@H]5C[C@@H]5CCOc5c(cnn5C)-c5cc(cc(C)n5)C(=O)/N=C/3N4)CC2)[C@@H](F)C1 (stereo partly drawn) [Example 32, 3-(5-((3S,4R)-4-(4-((7^1S,7^2R,E)-1^1,2^6-dimethyl-3-oxo-5^2,5^3-dihydro-1^1H,5^1H-10-oxa-4-aza-5 (2,1)-benzo[d]imidazola-2 (2,4)-pyridina-1 (4,5)-pyrazola-7 (1,2)-cyclopropanacyclodecaphane-5^6-yl)piperazin-1-yl)-3-fluoropiperidin-1-yl)-6-ethylpyridin-2-yl)piperidine-2,6-dione] |
| 2.61 | 41.7 | 13.4 | 68.5 | Cc1cc2cc(n1)-c1cnn(C)c1OCC[C@H]1C[C@@H]1CN1/C(=N/C2=O)Nc2ccc(N3CCN(C4CN(C5CCN(c6ccc(C7CCC(=O)NC7=O)nc6C)CC5)C4)C[C@@H]3C)cc21 (stereo partly drawn) [Example 36, 3-(5-(4-(3-((S)-4-((7^1S,7^2R,E)-1^1,2^6-dimethyl-3-oxo-5^2,5^3-dihydro-1^1H,5^1H-10-oxa-4-aza-5 (2,1)-benzo[d]imidazola-2 (2,4)-pyridina-1 (4,5)-pyrazola-7 (1,2)-cyclopropanacyclodecaphane-5^6-yl)-3-methylpiperazin-1-yl)azetidin-1-yl)piperidin-1-yl)-6-methylpyridin-2-yl)piperidine-2,6-dione] |
| 1.65 | 57 | 2.42 | 91.5 | CCc1nc(C2CCC(=O)NC2=O)ccc1N1CCC(N2CCN(c3ccc4c(c3)N3C[C@@H]5C[C@@]5(C)CCOc5c(cnn5C)-c5cc(cc(C)n5)C(=O)/N=C/3N4)CC2)CC1 (stereo partly shown) [Example 25, 3-(6-ethyl-5-(4-(4-((7^1R,7^2S,E)-1^1,2^6,7^2-trimethyl-3-oxo-5^2,5^3-dihydro-1^1H,5^1H-10-oxa-4-aza-5 (2,1)-benzo[d]imidazola-2 (2,4)-pyridina-1 (4,5)-pyrazola-7 (1,2)-cyclopropanacyclodecaphane-5^6-yl)piperazin-1-yl)piperidin-1-yl)pyridin-2-yl)piperidine-2,6-dione] |
| 2.83 | 67.9 | 3.97 | 83.2 | Cc1cc2cc(n1)-c1cnn(C)c1OCC[C@H]1C[C@@H]1CN1/C(=N/C2=O)Nc2ccc(N3CCN(C4CN(C5CCN(c6c(C)cc(C7CCC(=O)NC7=O)nc6C)CC5)C4)C[C@@H]3C)cc21 (stereo partly drawn) [Example 22, 3-(5-(4-(3-((S)-4-((7^1S,7^2R,E)-1^1,2^6-dimethyl-3-oxo-5^2,5^3-dihydro-1^1H,5^1H-10-oxa-4-aza-5 (2,1)-benzo[d]imidazola-2 (2,4)-pyridina-1 (4,5)-pyrazola-7 (1,2)-cyclopropanacyclodecaphane-5^6-yl)-3-methylpiperazin-1-yl)azetidin-1-yl)piperidin-1-yl)-4,6-dimethylpyridin-2-yl)piperidine-2,6-dione] |
| 7.82 | 73.3 | 18 | 76.4 | Cc1cc2cc(n1)-c1cnn(C)c1OCC[C@H]1C[C@@H]1CN1/C(=N/C2=O)Nc2ccc(N3CCN(C4CCN(c5cc(F)c(C6CCC(=O)NC6=O)nc5C)CC4)CC3)cc21 (stereo partly shown) [Example 16, 3-(5-(4-(4-((7^1S,7^2R,E)-1^1,2^6-dimethyl-3-oxo-5^2,5^3-dihydro-1^1H,5^1H-10-oxa-4-aza-5 (2,1)-benzo[d]imidazola-2 (2,4)-pyridina-1 (4,5)-pyrazola-7 (1,2)-cyclopropanacyclodecaphane-5^6-yl)piperazin-1-yl)piperidin-1-yl)-3-fluoro-6-methylpyridin-2-yl)piperidine-2,6-dione] |
